What was measured:
[1] = Induction of anti-CD3 antibodies-stimulated human CD8+ T cell activation at 1.11 uM assessed fold increase in CD69 expression measured by flow cytometry analysis; format: functional, T cell line; further: reference of the scale not given here
[2] = Induction of anti-CD3 antibodies-stimulated human T cell activation at 1.11 uM assessed fold increase in GM-CSF secretion measured by ELISA assay; format: functional, T cell line; further: reference of the scale not given here
[3] = Induction of anti-CD3 antibodies-stimulated human T cell activation at 8 uM assessed fold increase in IL-2 secretion measured by ELISA assay; format: functional, T cell line; further: reference of the scale not given here
[4] = Induction of anti-CD3/CD28 antibodies-stimulated human anergic T cell activation at 10 uM assessed fold increase in IFN-gamma secretion measured by ELISA assay; format: functional, T cell line
[5] = Induction of anti-CD3 antibodies-stimulated human T cell activation at 10 uM assessed fold increase in GM-CSF secretion measured by ELISA assay; format: functional, T cell line; further: reference of the scale not given here
[6] = Induction of anti-CD3/CD28 antibodies-stimulated human CD8+ T cell activation at 1.11 uM assessed fold increase in cell proliferation measured by flow cytometry analysis; format: functional, T cell line
[7] = Induction of activation of human CD56+ CD3- NK cells co-cultured with human K562 cells in 1:1 ratio and assessed as increase in IFN-gamma secretion at 2.5 uM measured by ELISA assay; format: functional, Natural killer cell
[8] = Induction of activation of human CD56+ CD3- NK cells co-cultured with human K562 cells in 1:1 ratio and assessed as increase in TNF-alpha secretion at 2.5 uM measured by ELISA assay; format: functional, Natural killer cell
[9] = Induction of anti-CD3/CD28 antibodies-stimulated human T cell activation at 1.11 uM assessed fold increase in IFN-gamma secretion measured by ELISA assay; format: functional, T cell line
[10] = Induction of anti-CD3 antibodies-stimulated human T cell activation at 1 uM assessed fold increase in IL-2 secretion measured by ELISA assay; format: functional, T cell line; further: reference of the scale not given here
[11] = Induction of anti-CD3/CD28 antibodies-stimulated human T cell activation at 4 uM assessed fold increase in IL-2 secretion measured by ELISA assay; format: functional, T cell line
[12] = Induction of activation of human CD56+ CD3- NK cells co-cultured with human K562 cells in 1:1 ratio and assessed as increase in IFN-gamma secretion at 10 uM measured by ELISA assay; format: functional, Natural killer cell
[13] = Induction of anti-CD3 antibodies-stimulated human T cell activation at 1.11 uM assessed fold increase in TNF-alpha secretion measured by ELISA assay; format: functional, T cell line; further: reference of the scale not given here
[14] = Induction of allogenic human T cell activation at 10 uM assessed fold increase in cell proliferation; format: functional, T cell line
[15] = Induction of activation of human CD56+ CD3- NK cells co-cultured with human K562 cells in 1:1 ratio and assessed as increase in TNF-alpha secretion at 0.625 uM measured by ELISA assay; format: functional, Natural killer cell
[16] = Induction of anti-CD3/CD28 antibodies-stimulated human T cell activation at 10 uM assessed fold increase in TNF-alpha secretion measured by ELISA assay; format: functional, T cell line
[17] = Induction of anti-CD3/CD28 antibodies-stimulated human anergic T cell activation at 0.37 uM assessed fold increase in IFN-gamma secretion measured by ELISA assay; format: functional, T cell line
[18] = Induction of anti-CD3 antibodies-stimulated human T cell activation at 1 uM assessed fold increase in CD25 expression measured by ELISA assay; format: functional, T cell line; further: reference of the scale not given here
[19] = Induction of anti-CD3/CD28 antibodies-stimulated human T cell activation at 0.3 uM assessed fold increase in CD25 expression measured by ELISA assay; format: functional, T cell line
[20] = Induction of anti-CD3/CD28 antibodies-stimulated human T cell activation at 10 uM assessed fold increase in IFN-gamma secretion measured by ELISA assay; format: functional, T cell line
[21] = Induction of anti-CD3/CD28 antibodies-stimulated human CD4+ T cell activation at 10 uM assessed fold increase in cell proliferation measured by flow cytometry analysis; format: functional, T cell line
[22] = Induction of anti-CD3 antibodies-stimulated human CD8+ T cell activation at 10 uM assessed fold increase in CD69 expression measured by flow cytometry analysis; format: functional, T cell line; further: reference of the scale not given here
[23] = Induction of anti-CD3 antibodies-stimulated human CD4+ T cell activation at 1.11 uM assessed fold increase in CD69 expression measured by flow cytometry analysis; format: functional, T cell line; further: reference of the scale not given here
[24] = Induction of anti-CD3 antibodies-stimulated human exhausted CD8+ T cell activation assessed fold increase in CTLA4 expression measured by flow cytometry analysis; format: functional, T cell line; further: reference of the scale not given here
[25] = Induction of anti-CD3 antibodies-stimulated human T cell activation at 8 uM assessed fold increase in CD25 expression measured by ELISA assay; format: functional, T cell line; further: reference of the scale not given here
[26] = Induction of anti-CD3 antibodies-stimulated human T cell activation at 1.11 uM assessed fold increase in IFN-gamma secretion measured by ELISA assay; format: functional, T cell line; further: reference of the scale not given here
[27] = Induction of anti-CD3/CD28 antibodies-stimulated human CD4+ T cell activation at 1.11 uM assessed fold increase in cell proliferation measured by flow cytometry analysis; format: functional, T cell line
[28] = Induction of activation of human CD56+ CD3- NK cells co-cultured with human K562 cells in 1:1 ratio and assessed as increase in TNF-alpha secretion at 10 uM measured by ELISA assay; format: functional, Natural killer cell
[29] = Induction of anti-CD3/CD28 antibodies-stimulated human CD4+ T cell activation at 1.11 uM assessed fold increase in CD69 expression measured by flow cytometry analysis; format: functional, T cell line
[30] = Induction of anti-CD3 antibodies-stimulated human T cell activation at 10 uM assessed fold increase in IFN-gamma secretion measured by ELISA assay; format: functional, T cell line; further: reference of the scale not given here
[31] = Induction of anti-CD3/CD28 antibodies-stimulated human CD8+ T cell activation at 1.11 uM assessed fold increase in CD69 expression measured by flow cytometry analysis; format: functional, T cell line
[32] = Induction of anti-CD3 antibodies-stimulated human CD4+ T cell activation at 10 uM assessed fold increase in CD69 expression measured by flow cytometry analysis; format: functional, T cell line; further: reference of the scale not given here
[33] = Induction of anti-CD3/CD28 antibodies-stimulated human anergic T cell activation at 1.11 uM assessed fold increase in IFN-gamma secretion measured by ELISA assay; format: functional, T cell line
B cell = assay: Induction of anti-IgM-stimulated human CD20+ B cell activation at 10 to 1000 uM assessed as increase in CD69 expression measured as mean fluorescence intensity AUC by flow cytometry analysis; format: functional, cell-based; conditions: dose 10-1000 µM
[34] = Induction of anti-CD3/CD28 antibodies-stimulated human CD8+ T cell activation at 10 uM assessed fold increase in cell proliferation measured by flow cytometry analysis; format: functional, T cell line
[35] = Induction of anti-CD3/CD28 antibodies-stimulated human CD4+ T cell activation at 10 uM assessed fold increase in CD69 expression measured by flow cytometry analysis; format: functional, T cell line
[36] = Induction of anti-CD3 antibodies-stimulated human exhausted T cell activation assessed fold increase in IL-2 secretion measured by ELISA assay; format: functional, T cell line; further: reference of the scale not given here
[37] = Induction of anti-CD3 antibodies-stimulated human CD8+ T cell activation at 10 uM assessed fold increase in cell proliferation measured by flow cytometry analysis; format: functional, T cell line; further: reference of the scale not given here

Compound: C[C@H](c1cc2c(c(C(F)(F)F)c1)CN(c1cccc(C3(Cc4nncn4C)COC3)c1)C2=O)N1CC[C@H](F)C1
- fold change (FC) [1]: 1.201
- fold change (FC) [2]: 1.51
- fold change (FC) [3]: >=0.201
- fold change (FC) [4]: >4.01
- fold change (FC) [5]: 2.01
- fold change (FC) [6]: 3.01
- fold change (FC) [7]: 2.01
- fold change (FC) [8]: 2.01
- fold change (FC) [9]: <=2
- fold change (FC) [10]: >=0.201
- fold change (FC) [11]: >=7.5
- fold change (FC) [12]: >=5
- fold change (FC) [13]: 1.51
- fold change (FC) [14]: >3
- fold change (FC) [15]: 2.01
- fold change (FC) [16]: 2.01
- fold change (FC) [17]: 2.51
- fold change (FC) [18]: >=1.001
- fold change (FC) [19]: 1.31
- fold change (FC) [20]: 3.01
- fold change (FC) [21]: >4
- fold change (FC) [22]: 1.401
- fold change (FC) [23]: 1.401
- fold change (FC) [24]: >1.61
- fold change (FC) [25]: >=1.001
- fold change (FC) [26]: 2.01
- fold change (FC) [27]: >4
- fold change (FC) [28]: >=5
- fold change (FC) [29]: 1.401
- fold change (FC) [30]: >4
- fold change (FC) [31]: 1.201
- fold change (FC) [32]: >1.601
- fold change (FC) [33]: >4.01
- AUC (B cell): 1.01
- fold change (FC) [34]: >4
- fold change (FC) [35]: >1.601
- fold change (FC) [36]: >3.01
- fold change (FC) [37]: >4

Compound: Cc1cc(C(=O)Nc2cccc(C3(Cc4nncn4C)COC3)c2)nc(C2CC2)n1
- fold change (FC) [1]: 1.201
- fold change (FC) [2]: 2.01
- fold change (FC) [3]: >=0.201
- fold change (FC) [4]: >4.01
- fold change (FC) [5]: 2.01
- fold change (FC) [6]: 3.01
- fold change (FC) [7]: 2.01
- fold change (FC) [8]: 2.01
- fold change (FC) [9]: 2.01
- fold change (FC) [10]: >=0.201
- fold change (FC) [11]: >=7.5
- fold change (FC) [12]: >=5
- fold change (FC) [13]: 1.51
- fold change (FC) [14]: >3
- fold change (FC) [15]: 1.01
- fold change (FC) [16]: 2.01
- fold change (FC) [17]: 2.51
- fold change (FC) [18]: >=1.001
- fold change (FC) [19]: 1.31
- fold change (FC) [20]: >4
- fold change (FC) [21]: >4
- fold change (FC) [22]: 1.401
- fold change (FC) [23]: 1.401
- fold change (FC) [24]: <=1.4
- fold change (FC) [25]: >=1.001
- fold change (FC) [26]: 2.01
- fold change (FC) [27]: >4
- fold change (FC) [28]: >=5
- fold change (FC) [29]: 1.401
- fold change (FC) [30]: >4
- fold change (FC) [31]: 1.201
- fold change (FC) [32]: >1.601
- fold change (FC) [33]: 2.51
- AUC (B cell): > 1.51
- fold change (FC) [34]: >4
- fold change (FC) [35]: 1.401
- fold change (FC) [36]: >3.01
- fold change (FC) [37]: >4

Compound: Cn1cnnc1[C@@H]1C[C@@H]1c1cccc(N2Cc3c(ccnc3C(F)(F)F)C2=O)c1
- fold change (FC) [1]: <=1.2
- fold change (FC) [2]: <=1.5
- fold change (FC) [3]: 0.101
- fold change (FC) [4]: 2.51
- fold change (FC) [5]: <=1.5
- fold change (FC) [6]: <=2
- fold change (FC) [7]: <=1
- fold change (FC) [8]: <=1
- fold change (FC) [9]: <=2
- fold change (FC) [10]: 0.051
- fold change (FC) [11]: 1.01
- fold change (FC) [12]: 2.01
- fold change (FC) [13]: <=1.5
- fold change (FC) [14]: <=2
- fold change (FC) [15]: <=1
- fold change (FC) [16]: 2.01
- fold change (FC) [17]: <=2.5
- fold change (FC) [18]: 0.601
- fold change (FC) [19]: 1.01
- fold change (FC) [20]: <=2
- fold change (FC) [21]: >4
- fold change (FC) [22]: <=1.2
- fold change (FC) [23]: <=1.2
- fold change (FC) [24]: <=1.4
- fold change (FC) [25]: 0.801
- fold change (FC) [26]: <=2
- fold change (FC) [27]: <=2
- fold change (FC) [28]: 1.01
- fold change (FC) [29]: <=1.2
- fold change (FC) [30]: <=2
- fold change (FC) [31]: <=1.2
- fold change (FC) [32]: <=1.2
- fold change (FC) [33]: <=2.5
- AUC (B cell): 1.01
- fold change (FC) [34]: 2.01
- fold change (FC) [35]: 1.401
- fold change (FC) [36]: <=2.5
- fold change (FC) [37]: <=2

Compound: C[C@H](Cc1nncn1C)c1cccc(N2Cc3c(ccnc3C3CC3)C2=O)c1
- fold change (FC) [1]: <=1.2
- fold change (FC) [2]: 1.51
- fold change (FC) [3]: >=0.201
- fold change (FC) [4]: 2.51
- fold change (FC) [5]: 2.01
- fold change (FC) [6]: <=2
- fold change (FC) [7]: 1.01
- fold change (FC) [8]: 1.01
- fold change (FC) [9]: <=2
- fold change (FC) [10]: 0.151
- fold change (FC) [11]: 1.01
- fold change (FC) [12]: 2.01
- fold change (FC) [13]: <=1.5
- fold change (FC) [14]: <=2
- fold change (FC) [15]: 1.01
- fold change (FC) [16]: 2.01
- fold change (FC) [17]: <=2.5
- fold change (FC) [18]: 0.601
- fold change (FC) [19]: 1.01
- fold change (FC) [20]: 2.01
- fold change (FC) [21]: >4
- fold change (FC) [22]: 1.201
- fold change (FC) [23]: <=1.2
- fold change (FC) [24]: <=1.4
- fold change (FC) [25]: >=1.001
- fold change (FC) [26]: <=2
- fold change (FC) [27]: 2.01
- fold change (FC) [28]: 2.01
- fold change (FC) [29]: <=1.2
- fold change (FC) [30]: 2.01
- fold change (FC) [31]: <=1.2
- fold change (FC) [32]: 1.201
- fold change (FC) [33]: <=2.5
- AUC (B cell): 0.5
- fold change (FC) [34]: 3.01
- fold change (FC) [35]: 1.401
- fold change (FC) [36]: <=2.5
- fold change (FC) [37]: 3.01
